In PubChem BioAssay (NCI):
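Briefly, cells in 96-well plates were exposed to five compound concentrations for 48 h, and endpoints were estimated by linear interpolation. TGI marks complete inhibition of growth.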 Where a SMILES comes first, the peptide text is derived from it.

How the values were obtained:
Test in all cases: NCI-60 cell line screen, 48 h
[1] = tested on: 786-0 renal
[2] = tested on: CCRF-CEM leukemia
[3] = tested on: HOP-62 NSCLC
[4] = tested on: HS 578T breast
[5] = tested on: K-562 leukemia
[6] = tested on: NCI-H23 lung
[7] = tested on: OVCAR-4 ovarian
[8] = tested on: RPMI-8226 leukemia
[9] = tested on: SF-539 CNS
[10] = tested on: SK-MEL-28 melanoma
[11] = tested on: SK-MEL-5 melanoma
[12] = tested on: SK-OV-3 ovarian
[13] = tested on: SN12C renal
[14] = tested on: SNB-75 CNS
[15] = tested on: TK-10 renal
[16] = tested on: UACC-62 melanoma
[17] = tested on: UO-31 renal
[18] = tested on: ACHN renal
[19] = tested on: MDA-N
[20] = tested on: OVCAR-5 ovarian

| SMILES | TGI [1] [µM] | TGI [2] [µM] | TGI [3] [µM] | TGI [4] [µM] | TGI [5] [µM] | TGI [6] [µM] | TGI [7] [µM] | TGI [8] [µM] | TGI [9] [µM] | TGI [10] [µM] | TGI [11] [µM] | TGI [12] [µM] | TGI [13] [µM] | TGI [14] [µM] | TGI [15] [µM] | TGI [16] [µM] | TGI [17] [µM] | TGI [18] [µM] | TGI [19] [µM] | TGI [20] [µM] |
| --- | --- | --- | --- | --- | --- | --- | --- | --- | --- | --- | --- | --- | --- | --- | --- | --- | --- | --- | --- | --- |
| CCOC(=O)c1c(-c2ccccc2)nc2c(OC)nccn12 | > 100 | > 100 | > 100 | > 100 | > 100 | > 100 | > 100 | > 100 | > 100 | > 100 | > 100 | > 100 | > 100 | > 100 | > 100 | > 100 | > 100 | – | – | – |
| C[C@]12CC[C@H]3[C@@H](CCC4=CC(=O)CC[C@@]43C)[C@@H]1CC[C@@H]2C(=O)Nc1ccc([N+](=O)[O-])c(C(F)(F)F)c1 | 31.2 | 71.3 | 67.1 | 38.4 | 73.7 | > 10 | 34.9 | > 100 | 33.5 | 37.4 | 32.5 | 25.4 | 41 | – | 35.3 | 31.9 | 32.8 | 38.9 | > 10 | > 10 |
| C/C=C1\CNC1C(=O)O (stereo not given) | > 100 | > 100 | > 100 | > 100 | > 100 | > 100 | > 100 | > 100 | > 100 | > 100 | > 100 | > 100 | > 100 | – | > 100 | > 100 | > 100 | > 100 | > 100 | > 100 |
| CC(C)[Si](OC1=C(C(=O)N(C)c2ccccc2Cl)CCCCC1)(C(C)C)C(C)C | > 100 | – | > 100 | – | – | > 100 | > 100 | > 100 | > 100 | > 100 | > 100 | > 100 | > 100 | > 100 | > 100 | – | > 100 | > 100 | > 100 | > 100 |
| O=[N+]([O-])c1ccc(N/N=C(\c2ccccc2)c2ccccn2)nc1 | 23.4 | > 91.5 | 31.2 | 26 | > 100 | 14.9 | > 100 | > 100 | 15.3 | > 100 | 26.5 | 24 | > 68.9 | 28.4 | – | > 54.3 | 4.69 | 18.7 | > 100 | 85.1 |
| CN(C)C1(N(C)C)Oc2c(c(=O)n(C)c(=O)n2C)C(c2ccccc2Br)C1(F)F (stereo not given) | > 100 | > 100 | > 100 | – | > 100 | > 100 | > 100 | > 100 | > 100 | > 100 | > 100 | > 100 | – | > 100 | > 100 | > 100 | > 100 | > 100 | – | > 100 |
| CC(=O)O[C@H]1CC[C@@]2(C)C(=C[C@H](c3ccc(O)cc3)[C@H]3[C@@H]4CC[C@H](OC(C)=O)[C@@]4(C)CC[C@@H]32)C1 | 38.3 | 56.1 | 66.9 | – | 59.4 | 53.7 | 41 | 45.8 | 43.9 | – | 23.8 | > 100 | 69 | 51.7 | > 100 | 23 | 76.4 | 80.6 | – | 97.9 |
| Cc1c(NC(=O)c2cc([N+](=O)[O-])cc([N+](=O)[O-])c2)c(=O)n(-c2ccccc2)n1C | > 100 | > 100 | > 100 | > 100 | > 100 | > 100 | > 100 | > 100 | > 100 | > 100 | > 100 | > 100 | > 100 | – | > 100 | > 100 | > 100 | – | > 100 | – |
| CC1=CC(=O)C(=CN2C(=O)/C(=C\c3cccnc3)NC2=S)C(=O)O1 | > 100 | – | > 100 | – | – | > 100 | > 100 | – | > 100 | > 100 | > 100 | > 100 | > 100 | > 100 | > 100 | – | > 100 | > 100 | > 100 | > 100 |
| C=C(Br)C(C)(Br)CCC(Br)C(C)(C)Br (stereo not given) | 44.5 | 63.5 | 34.9 | – | > 100 | > 100 | > 100 | 58.2 | 38.8 | 46.3 | > 100 | > 100 | 52.4 | 89.2 | > 100 | 45.1 | > 100 | > 100 | – | > 100 |
| O=c1c2cc(-c3ccccc3)cnc2sn1-c1ccc(Oc2ccccc2)cc1 | 36.4 | 82.9 | 56.8 | – | > 100 | > 100 | 51.9 | > 100 | > 100 | > 100 | – | > 100 | 89.8 | 75.9 | – | > 100 | > 100 | > 100 | > 100 | > 100 |
| CC(=O)C1=C(C)N2C(=NC3=C(CCc4ccccc43)C2c2cccc(Br)c2)S1 (stereo not given) | > 100 | > 100 | > 100 | > 100 | – | > 100 | > 100 | 53.5 | > 100 | > 100 | > 100 | > 100 | > 100 | > 100 | – | > 100 | > 100 | > 100 | > 100 | > 100 |
| COc1ccc2nc3cc([N+](=O)[O-])ccc3c(Nc3ccc(S(=O)(=O)N=C(N)N)cc3)c2c1 | > 100 | 36.5 | > 100 | > 100 | 63.1 | > 100 | > 100 | 42.6 | > 100 | > 100 | 36.4 | > 100 | > 100 | – | > 100 | 46.9 | > 100 | > 100 | > 100 | > 100 |
| CCC12CC(c3ccccc3)C(C(=O)N1)C(=O)N2 (stereo not given) | > 100 | > 100 | > 100 | > 100 | > 100 | > 100 | > 100 | > 100 | > 100 | > 100 | > 100 | > 100 | > 100 | > 100 | – | > 100 | > 100 | > 100 | > 100 | > 100 |
| N#C/C(C(=S)Nc1ccccc1)=C(/N)N1CCCC1 | > 100 | > 100 | > 100 | > 100 | > 100 | > 100 | > 100 | > 100 | > 100 | > 100 | > 100 | – | > 100 | – | > 100 | > 100 | > 100 | > 100 | > 100 | > 100 |
| CC(CO)(CBr)COC(=O)c1cc(Br)c(N)c(Br)c1 (stereo not given) | > 100 | > 100 | > 100 | – | > 100 | > 100 | > 100 | > 100 | > 100 | > 100 | > 100 | > 100 | > 100 | – | > 100 | > 100 | 11.3 | > 100 | > 100 | > 100 |
| COCCN(CCOC)C(=O)COc1c2cc(C(C)(C)C)cc1Cc1cc(C(C)(C)C)cc(c1OCC(=O)N(CCOC)CCOC)Cc1cc(C(C)(C)C)cc(c1OCC(=O)N(CCOC)CCOC)Cc1cc(C(C)(C)C)cc(c1OCC(=O)N(CCOC)CCOC)Cc1cc(C(C)(C)C)cc(c1OCC(=O)N(CCOC)CCOC)C2 | 12.2 | – | 5.04 | – | – | 4.19 | 17.5 | – | 5.9 | 18.6 | 2.78 | 14.6 | 11.4 | 0.576 | 15 | 3.53 | – | 12.6 | 12.1 | 18.2 |
| CC(=O)NC1C(OC2C(CO)OC(OCC3OC(n4ccc(N)nc4=O)C(O)C3O)C(NC(C)=O)C2O)OC(CO)C(O)C1O (stereo not given) | > 100 | > 100 | > 100 | > 100 | > 100 | > 100 | > 100 | > 100 | > 100 | > 100 | > 100 | > 100 | > 100 | > 100 | > 100 | > 100 | > 100 | > 100 | – | > 100 |
| CC(C)[Si](OC1=C(c2ccccc2)C(NC(=O)/C=C/c2ccc([N+](=O)[O-])cc2)CCC1)(C(C)C)C(C)C (stereo not given) | > 100 | > 100 | > 100 | > 100 | > 100 | > 100 | – | > 100 | > 100 | – | > 100 | > 100 | – | > 100 | > 100 | > 100 | > 100 | – | – | > 100 |
| CCC(CCN)(CCN)[N+](=O)[O-] | > 100 | – | – | > 100 | > 100 | – | – | > 100 | > 100 | – | > 100 | > 100 | > 100 | > 100 | – | > 100 | – | – | > 100 | > 100 |
| CCOC1(OCC)N=C(N)C2(C#N)C3(C(=O)N(C(C)C)N=C3C)C12C#N (stereo not given) | > 100 | > 100 | > 100 | – | > 100 | > 100 | > 100 | > 100 | > 100 | > 100 | – | > 100 | > 100 | > 100 | – | > 100 | > 100 | > 100 | – | > 100 |
| CNC(=O)CNC(=O)C(NC(=O)CNC(=O)C1CCCN1C(=O)C(C)NC(=O)C(NC(C)=O)C(C)C)C(C)C (stereo not given) (Ac-VAPGVG-NHMe; configuration not given here) | > 100 | > 100 | > 100 | – | > 100 | > 100 | > 100 | > 100 | > 100 | > 100 | – | > 100 | > 100 | – | > 100 | > 100 | > 100 | > 100 | > 100 | > 100 |
| C/C(=N\Nc1nc2ccccc2s1)c1cnccn1 | > 100 | > 100 | > 54.8 | 20 | > 34.1 | 12.3 | > 100 | > 47.8 | 36.7 | > 100 | 16 | > 27.7 | > 80.8 | > 31.3 | – | > 60.6 | 23.6 | 21.1 | > 100 | > 77.7 |
| N#Cc1c(-c2cccc(Cl)c2)cc(-c2ccc(Cl)cc2)nc1N | 33.5 | 48.4 | 36.3 | 40.5 | > 100 | 38.2 | 33.1 | 48 | 34.3 | – | 30.1 | 46.7 | 34.4 | – | 52.2 | 32.7 | 27.5 | 41.6 | 42.3 | 42.9 |
| CSc1nc2c(c(=O)[nH]1)N=C(c1ccc(Cl)cc1)CC(c1ccccc1)N2 (stereo not given) | 30 | 37.4 | 31.7 | – | 44.9 | 30 | 23.6 | 40.1 | 33.3 | 32.4 | 26.1 | – | 30 | 24.7 | – | – | 26.8 | 29 | 31.4 | 34.2 |
